Data from patent US20180021277A1, “ANTI-VIRULENCE COMPOSITIONS AND METHODS” (priority 2012, published 2018).
Substitutions are numbered along the chain they refer to. “And” between values parts separate entries of the source, which are not always exact repeats. Equal entries are not always repeated. “Also recorded” adds a separate entry of the source.

What was measured:
[1] = tested on: MRSA strain lacking the agr operon (Lac Δagr); assay: Biofilm formation in MRSA strain lacking the agr operon; format: cell-based, Staphylococcus aureus; conditions: data not shown
[2] = molecular target: T1, C-terminal DNA-binding domain (AgrA_C) of the Staphylococcus aureus response regulator AgrA (Staphylococcus aureus, UniProt P0A0I7); assay: Microscale thermophoresis binding to AgrA_C; conditions: listed as F19, read-out: Kd / affinity to AgrA_C
T1 sequence (P0A0I7 143-238): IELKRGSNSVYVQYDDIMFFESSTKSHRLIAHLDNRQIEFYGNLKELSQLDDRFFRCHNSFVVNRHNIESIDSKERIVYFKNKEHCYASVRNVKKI
Protocol: The AgrA C proteins from S. aureus and S. epidermidis were fluorescently labeled with Alexa Fluor 647 NHS ester and purified on Zeba spin columns. Compound F19 was diluted as a gradient through the capillaries while protein concentrations were maintained constant. Measurements were performed on a Nanotemper Monolith NT.115 apparatus. Lysozyme and known inhibitor N,N′,N″-triacetylchitotriose (Fisher Scientific) were used as controls.

[3] = molecular target: T2, AgrA_C I238A, V235A, V232A and double mutants (Staphylococcus aureus, UniProt P0A0I7, I238A); assay: Microscale thermophoresis binding to AgrA_C alanine mutants; conditions: data not shown
T2 construct: made in house
T2 sequence (P0A0I7 143-238 I238A): T1 sequence (P0A0I7 143-238) with I96A

[4] = molecular target: T3, AgrA_C I238A, V235A, V232A and double mutants (Staphylococcus aureus, UniProt P0A0I7, V235A); assay: as above; conditions: data not shown
T3 construct: made in house
T3 sequence (P0A0I7 143-238 V235A): T1 sequence (P0A0I7 143-238) with V93A

[5] = molecular target: T4, AgrA_C I238A, V235A, V232A and double mutants (Staphylococcus aureus, UniProt P0A0I7, I238A/V235A); assay: as above
T4 construct: made in house
T4 sequence (P0A0I7 143-238 V235A/I238A): T1 sequence (P0A0I7 143-238) with V93A, I96A

[6] = molecular target: T5, AgrA_C I238A, V235A, V232A and double mutants (Staphylococcus aureus, UniProt P0A0I7, V232A); assay: as above
T5 construct: made in house
T5 sequence (P0A0I7 143-238 V232A): T1 sequence (P0A0I7 143-238) with V90A

MRSA USA300 [7] = format: in vivo, mice; conditions: topical twice a day for seven days, day 8
MRSA USA300 [8] = assay: Biofilm measurement (crystal violet), MRSA; format: cell-based, Staphylococcus aureus; conditions: control = 100
Protocol: Bacterial cells were grown in Luria Broth overnight and an OD600 of 0.5 corresponding to 10^6 cfu/mL. 200 μL of this bacterial culture was plated with the presence of compound at various concentrations. Biofilm was allowed to form by placing the plate at 37° C. in the incubator without shaking. The plate was then washed 2× with water while being careful not to disturb the biofilm. Water was aspirated out and the plate was baked dry in a 60° C. incubator for 2 h. 125 μL of a 0.06% crystal violet solution ([…] in H2O) was added to each well and allowed to sit at room temperature for 15 minutes. […] The plate was inverted on a paper towel to dry overnight.125 μL of 30% acetic acid was added to each well and was left at room temperature for 15 minutes. The wells were mixed by pipetting and the solution was transferred to a clean 96-well plate and read at OD595.

MRSA USA300 [9] = assay: Murine MRSA bacteremia/sepsis model
MRSE Q-15 = assay: RT-qPCR of virulence gene transcription in MRSE; conditions: 50 μg/mL F19
MRSA USA300 [10] = assay: Emergence of resistance in vitro: daily passaging with hemolysis read-out; format: cell-based, Staphylococcus aureus; conditions: 50 μg/mL, 16 daily passages; listed as F19

## CCCCCCc1cc(C(=O)COc2ccc(C(C)C)cc2)c(O)cc1O [4f-19]
[1]
  biofilm formation in Lac Δagr: biofilm inhibition was also observed
[2]
  Kd: 2.9 µM and 4.5 µM
[3]
  reduction of affinity by I238A mutant: 14 fold
[4]
  reduction of affinity by V235A mutant: 5 fold
[5]
  binding to the I238A/V235A double mutant: very weak binding at the background level of the instrument
[6]
  affinity to V232A mutant: no loss of affinity
MRSA USA300 [7]
  bacterial load on the wounds compared to vehicle-treated or untreated wounds: did not reduce the bacterial load on the wounds
MRSA USA300 [7]; cephalothin 30 mg/kg, F19 20 mg/kg, vancomycin 30 mg/kg
  tissue burden of the wound, average log CFUs ± standard deviation: 8.50±0.4 log CFU
MRSA USA300 [8]; F19 1 μg/ml
  Biofilm (%): 78.8 ± 11.8%
MRSA USA300 [8]; F19 10 μg/ml
  Biofilm (%): 53.7 ± 7.9%
MRSA USA300 [8]; F19 50 μg/ml
  Biofilm (%): 20.6 ± 3.7%
MRSA USA300 [9]; 30 mg/kg IP twice daily, day 6
  mean bacterial load in blood compared to vehicle-treated animals: nearly an order of magnitude lower
MRSA USA300 [9]; F19 alone 30 mg/kg IP twice daily for 7 days
  survival: 100%
MRSE Q-15
  inhibition of AtlE transcription: 1910 fold
  inhibition of psm-α transcription: 5043 fold
MRSA USA300 [10]
  emergence of resistance/tolerance: hemolysis of rabbit blood over daily passages: no increase in hemolysis; also recorded: No emergence of resistance
